From patent publication US8653023B1, “Dual beneficial effect of dopamine enhancing and neuroprotective actions of PKC delta inhibitors for treatment of Parkinson's disease” (Iowa State University Research Foundation, Inc., priority 2006, dated 2014)
Where two headings read alike, the source gives them in different places.

What was measured:
[1] = system: tyrosine hydroxylase (TH); assay: TH activity (DOPA levels after NSD-1015) in PC12 cells; type: cell-based; conditions: 2 mM NSD-1015
Method: PC12 cells, differentiated N27 dopaminergic cells and primary mesencephalic neurons were exposed to 1-10 μM rottlerin for the duration of the experiment. DMSO (0.01%) was used as vehicle control. PKCδ-DN- and Lac Z-expressing N27 cells were only treated with 0.01% DMSO. […] Untreated or vehicle treated cells were used as control samples.

PKCε, ζ, or η = conditions: cited from earlier work
CAM kinase III = CAM kinase III (Homo sapiens, UniProt O00418); conditions: cited from earlier work
CAM kinase III, sequence (O00418 whole entry): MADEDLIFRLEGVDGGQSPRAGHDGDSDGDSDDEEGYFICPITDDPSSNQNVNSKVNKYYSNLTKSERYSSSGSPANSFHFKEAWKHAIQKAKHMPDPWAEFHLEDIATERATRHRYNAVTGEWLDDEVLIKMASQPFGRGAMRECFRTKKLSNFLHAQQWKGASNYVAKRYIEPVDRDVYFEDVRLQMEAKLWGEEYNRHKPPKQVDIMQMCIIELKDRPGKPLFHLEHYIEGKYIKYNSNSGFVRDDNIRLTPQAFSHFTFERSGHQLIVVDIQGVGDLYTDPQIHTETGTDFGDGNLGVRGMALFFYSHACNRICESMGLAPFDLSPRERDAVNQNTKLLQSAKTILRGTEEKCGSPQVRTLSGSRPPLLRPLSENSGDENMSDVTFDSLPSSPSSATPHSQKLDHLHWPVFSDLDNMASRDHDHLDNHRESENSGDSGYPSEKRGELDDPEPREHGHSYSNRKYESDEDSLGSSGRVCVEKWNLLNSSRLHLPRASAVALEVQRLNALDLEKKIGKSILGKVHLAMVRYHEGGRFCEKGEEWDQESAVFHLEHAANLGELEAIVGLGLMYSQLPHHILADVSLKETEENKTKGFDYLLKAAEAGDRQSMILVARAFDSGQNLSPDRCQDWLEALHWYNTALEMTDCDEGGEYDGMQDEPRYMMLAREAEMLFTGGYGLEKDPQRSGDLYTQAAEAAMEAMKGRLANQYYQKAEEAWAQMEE

[2] = system: primary mesencephalic dopaminergic neuronal cells; type: cell-based, mice; conditions: 10 μM MPP+, 48 hrs
Method: Primary mesencephalic neuronal cultures were prepared from the ventral mesencephalon of gestational 16-18-day-old mice embryos as described previously (Yang et al., 2004). Mesencephalic tissues were dissected and maintained in ice-cold Ca^2+-free HESS and then dissociated in HESS solution containing trypsin-EDTA (0.25%) for 20 min at 37° C. The dissociated cells were then plated at equal density (0.5×10^6 cells) in 30-mm-diameter tissue culture wells precoated with poly-D-lysine (1 mg/ml). Cultures were maintained in a chemically defined medium consisting of neurobasal medium fortified with B-27 supplements, L-glutamine (500 μM), penicillin (100 IU/ml), and streptomycin (100 μg/ml) (Life Technologies). The cells were maintained in a humidified CO2 incubator (5% CO2, 37° C.) for 24 hr and then treated with cytosine arabinoside (10 μM) for 24 hr to inhibit glial cell proliferation. Half of the culture medium was replaced every 2 days. Approximately 6-7-day-old cultures were used for experiments. […]
After treatment, the primary mesencephalic neurons were fixed with 4% paraformaldehyde and processed for immunocytotochemical staining. […] Then the coverslips containing stained cells were washed with PBS, mounted on a slide, and viewed under a Nikon inverted fluorescence microscope (Model TE-2000U); images were captured with a SPOT digital camera (Diagnostic Instruments, Sterling Heights, Mich.).
We used Metamorph software (Universal Imaging, Version 5.0) for measurement of TH^+ cells and neuronal processes in primary neurons from each coverslip. For measurement of TH cell count, the images were first thresholded, and then neuronal count and volume were measured using the Integrated Morphometry Analysis (IMA) function. The data were logged to an Excel spreadsheet with defined row and column positions and then analyzed. […] The data were exported to an Excel spreadsheet and analyzed. TH^+ neurons and their processes were counted in at least six individual cultures for each treatment. This method is a modified version of methodology recently used for quantification of neuronal processes.

In the case of `CC(=O)c1c(O)c(C)c(O)c(Cc2c(O)c3c(c(C(=O)/C=C/c4ccccc4)c2O)OC(C)(C)C=C3)c1O` [rottlerin], the TH activity ([1]; 1 μM rottlerin 3 hr) is listed as 2091.09±80.17 pg DOPA/10^6 cells/hr, the TH activity ([1]; 3 μM rottlerin 3 hr) is listed as 3045±75.31 pg DOPA/10^6 cells/hr and the “fold more potent on PKCδ than on PKCε, ζ, or η” value (PKCε, ζ, or η) is listed as 13- to 33 fold. For the same compound, the inhibiting concentration (CAM kinase III) was 3 to 6 µM, the “MPP+-induced degeneration of TH+ neurons and their processes” value ([2]; 0.3 μM rottlerin) was “significantly blocked” and the “MPP+-induced degeneration of TH+ neurons and their processes” value ([2]; 1 μM rottlerin) was “significantly blocked”.
